Test results as given in ChEMBL document CHEMBL1201862, “PubChem BioAssay data set” (2004).
Activity calls are given as the source filed them.

Columns and labels:
[1] = molecular target: T1, Nuclear receptor subfamily 0 group B member 1 (Homo sapiens, UniProt P51843); assay type: functional, cell-based;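 note: HEK293T cells transfected with SF-1 and DAX-1 plus StAR promoter luciferase reporter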
T1 sequence (P51843 whole entry): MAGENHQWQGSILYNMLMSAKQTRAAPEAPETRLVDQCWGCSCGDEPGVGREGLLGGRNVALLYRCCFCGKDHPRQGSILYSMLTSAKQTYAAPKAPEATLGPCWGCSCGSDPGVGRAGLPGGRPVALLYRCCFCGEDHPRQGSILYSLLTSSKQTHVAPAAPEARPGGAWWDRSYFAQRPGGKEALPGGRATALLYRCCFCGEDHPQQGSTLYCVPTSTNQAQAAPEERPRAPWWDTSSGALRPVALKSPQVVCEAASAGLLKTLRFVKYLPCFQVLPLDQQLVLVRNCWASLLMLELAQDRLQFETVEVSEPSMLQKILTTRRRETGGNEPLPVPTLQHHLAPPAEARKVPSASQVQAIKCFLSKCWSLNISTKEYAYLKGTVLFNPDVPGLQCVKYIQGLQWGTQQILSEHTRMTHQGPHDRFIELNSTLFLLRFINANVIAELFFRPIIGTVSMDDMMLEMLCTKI

cells [2] = assay type: functional, cell-based
Mu-type opioid receptor = Mu-type opioid receptor (Homo sapiens, UniProt P35372); assay type: functional, cell-based;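 note: U2OS cells with beta-arrestin recruitment to OPRM1 by beta-gal complementation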
[3] = molecular target: T2, Heat shock factor protein 1 (Mus musculus, UniProt P38532); test: enhancement of HSF1-driven luciferase signal – cell-based, NIH3T3, luminescence, dose retest, confirmation (AID 435004); assay type: functional;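 note: stress induced by proteasome inhibitor MG132 added 30 min after compound; luciferase reporter driven by HSF1 response element in NIH3T3 cells; actives raise luminescence as potentiators of the MG132 stress response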
T2 sequence (P38532 whole entry): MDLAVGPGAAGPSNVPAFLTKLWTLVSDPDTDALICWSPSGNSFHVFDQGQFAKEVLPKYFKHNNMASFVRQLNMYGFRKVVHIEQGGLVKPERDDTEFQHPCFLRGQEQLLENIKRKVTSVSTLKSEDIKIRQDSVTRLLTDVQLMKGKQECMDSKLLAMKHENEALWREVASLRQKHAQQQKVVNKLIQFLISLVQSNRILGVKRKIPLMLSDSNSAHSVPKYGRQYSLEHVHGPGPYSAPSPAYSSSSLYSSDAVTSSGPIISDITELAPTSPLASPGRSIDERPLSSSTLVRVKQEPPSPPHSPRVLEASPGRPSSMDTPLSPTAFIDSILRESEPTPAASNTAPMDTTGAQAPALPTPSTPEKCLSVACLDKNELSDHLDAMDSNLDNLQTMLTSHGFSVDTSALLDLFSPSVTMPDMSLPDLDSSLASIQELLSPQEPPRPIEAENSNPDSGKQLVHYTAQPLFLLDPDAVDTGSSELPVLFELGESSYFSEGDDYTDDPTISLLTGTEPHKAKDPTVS

[4] = molecular target: 5-hydroxytryptamine receptor 2A (Mus musculus, UniProt P35363); assay type: functional, cell-based;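 note: CHO-K1 cells with tagged receptor and beta-arrestin; agonist potency measured as compound-induced activation of the receptor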
[5] = off-target signal loss in HeLa-CEM21 co-culture – HeLa F-luc CTL cells, cherry-picked, counter-screen for HIV-1 Env fusion inhibitor project, dose response (AID 652040); assay type: functional, cell-based;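 note: potency for signal decrease marking cytotoxic or nonspecific inhibition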
[6] = blockers of HIV-1 ZM109 envelope-driven cell-cell fusion – HeLa effector, CEM target cells, luciferase, cherry-pick, dose response (AID 652058); assay type: functional, cell-based;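 note: luciferase signal from HIV-1 Env mediated cell-cell fusion of effector and target cells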
[7] = viability loss in CEM21 cells – cell-based, CellTiter-Glo luminescence, cherry-picked, cytotoxicity control for viral fusion inhibitor project, dose response (AID 652042); assay type: functional;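 note: potency for signal decrease meaning cytotoxicity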
[8] = HIV-1 AD8 envelope cell-cell fusion blockers – cherry-pick, dose response (AID 652062); assay type: functional, cell-based;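 note: luciferase signal from cell-cell fusion driven by HIV-1 clade B AD8 Env; potency is for inhibitors of fusion seen as a drop in luminescence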
[9] = blockers of HIV-1 envelope-mediated cell-cell fusion – cherry-pick, dose response (AID 652057); assay type: functional, cell-based
[10] = molecular target: T3, Long-chain-fatty-acid--AMP ligase FadD28 (Mycobacterium tuberculosis, UniProt P9WQ59); test: Fluorescence polarization aasay to screen for inhibitors that compete for the binding of FadD28 to a bisubstrate Measured in Biochemical System Using Plate Reader - 2147-01_Inhibitor_Dose_CherryPick_Activity.; assay type: functional, Mycobacterium tuberculosis H37Rv
T3 sequence (P9WQ59 whole entry): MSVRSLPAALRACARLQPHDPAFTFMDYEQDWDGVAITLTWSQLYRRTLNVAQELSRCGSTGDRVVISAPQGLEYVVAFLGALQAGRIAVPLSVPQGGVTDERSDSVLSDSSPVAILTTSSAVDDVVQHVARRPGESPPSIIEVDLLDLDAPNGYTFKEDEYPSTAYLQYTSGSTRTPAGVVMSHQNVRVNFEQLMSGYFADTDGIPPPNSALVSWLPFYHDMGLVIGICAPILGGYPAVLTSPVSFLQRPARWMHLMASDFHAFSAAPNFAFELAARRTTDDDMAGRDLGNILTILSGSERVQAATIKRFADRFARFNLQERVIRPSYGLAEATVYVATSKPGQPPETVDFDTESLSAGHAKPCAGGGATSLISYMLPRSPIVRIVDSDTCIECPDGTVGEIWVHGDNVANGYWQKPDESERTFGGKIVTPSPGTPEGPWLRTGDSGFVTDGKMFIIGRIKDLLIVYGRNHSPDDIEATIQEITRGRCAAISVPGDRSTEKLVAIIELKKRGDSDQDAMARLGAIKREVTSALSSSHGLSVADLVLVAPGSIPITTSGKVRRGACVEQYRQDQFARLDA

[11] = molecular target: FAD-linked sulfhydryl oxidase ALR (Homo sapiens, UniProt P55789); test: ALR-catalysed DTT oxidation blockers – biochemical, H2O2 detection, luminescence, cherry-pick, dose response (AID 493248)
[12] = molecular target: T4, Rac GTPase-activating protein 1 (Homo sapiens, UniProt Q9H0H5); test: blockers of MgcRacGAP-driven Rac1 GTP hydrolysis – biochemical, ADP Hunter fluorescence, primary and confirmatory, confirmation (AID 624330); assay type: functional
T4 sequence (Q9H0H5 whole entry): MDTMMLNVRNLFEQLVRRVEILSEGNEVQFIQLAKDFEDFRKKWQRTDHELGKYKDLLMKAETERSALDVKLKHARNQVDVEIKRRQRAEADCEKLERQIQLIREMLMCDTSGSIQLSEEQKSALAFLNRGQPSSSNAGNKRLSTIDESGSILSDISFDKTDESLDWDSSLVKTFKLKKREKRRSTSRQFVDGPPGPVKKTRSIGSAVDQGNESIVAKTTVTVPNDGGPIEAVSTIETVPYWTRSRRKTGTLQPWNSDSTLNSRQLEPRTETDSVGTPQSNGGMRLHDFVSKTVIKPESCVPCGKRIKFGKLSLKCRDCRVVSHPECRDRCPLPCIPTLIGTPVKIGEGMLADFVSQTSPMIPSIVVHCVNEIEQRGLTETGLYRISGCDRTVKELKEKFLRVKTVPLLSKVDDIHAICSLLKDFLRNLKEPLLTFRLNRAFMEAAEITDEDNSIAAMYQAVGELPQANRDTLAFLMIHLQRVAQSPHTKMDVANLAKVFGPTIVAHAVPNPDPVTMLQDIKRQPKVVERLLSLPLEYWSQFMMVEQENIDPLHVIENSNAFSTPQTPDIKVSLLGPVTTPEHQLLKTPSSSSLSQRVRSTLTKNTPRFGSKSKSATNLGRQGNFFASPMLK

Large T antigen = Large T antigen (Simian virus 40, UniProt P03070); assay type: functional, Betapolyomavirus macacae;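 note: Confirmatory-stage PubChem screen for compounds that inhibit SV40 T antigen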
cells [13] = assay type: functional, cell-based; remark: listed apart in the source
[14] = molecular target: T5, Trace amine-associated receptor 1 (Homo sapiens, UniProt Q96RJ0); test: Counterscreen for agonists of the human trace amine associated receptor 1 (hTAAR1): Fluorescence-based cell-based high throughput dose response assay to identify hTAAR1 agonist that also desensitize TAAR1 receptor response.; assay type: functional
T5 sequence (Q96RJ0 whole entry): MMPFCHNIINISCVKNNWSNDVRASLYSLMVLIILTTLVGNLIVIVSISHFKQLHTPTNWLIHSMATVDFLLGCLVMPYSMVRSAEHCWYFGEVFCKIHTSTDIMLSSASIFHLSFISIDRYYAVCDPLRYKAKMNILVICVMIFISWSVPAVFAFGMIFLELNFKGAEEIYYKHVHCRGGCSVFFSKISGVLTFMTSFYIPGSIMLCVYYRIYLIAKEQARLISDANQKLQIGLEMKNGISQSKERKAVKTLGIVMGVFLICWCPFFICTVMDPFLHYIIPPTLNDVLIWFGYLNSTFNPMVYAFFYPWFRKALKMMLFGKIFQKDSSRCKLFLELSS

cells [15] = assay type: functional, cell-based; remark: listed apart in the source
[16] = molecular target: T5, Trace amine-associated receptor 1; test: Fluorescence-based cell-based high throughput dose response assay to identify agonists of the human trace amine associated receptor 1 (TAAR1).; assay type: functional
[17] = test system: Streptococcus sp. 'group A'; test: Streptococcus pyogenes SK(-)GAS viability under kanamycin – luminescence, BacTiterGlo, confirmation, counter-screen for streptokinase expression inhibitor project, dose response (AID 1900); assay type: functional, organism-based
[18] = molecular target: Luciferin 4-monooxygenase (Photinus pyralis, UniProt P08659); test: inhibition of purified Photinus pyralis luciferase – biochemical, luminescence, dose response (AID 1891)
BJ [19] = test: cells; assay type: functional, cell-based; details: Homo sapiens
BJ [20] = test: BJ-TERT-LT-ST fibroblast viability loss – cell-based, RAS-independent, luminescence, dose response (AID 1935); assay type: functional; details: Homo sapiens;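 note: BJ fibroblasts immortalized with TERT plus LT and ST oncogenes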
Streptococcus = test: GAS UMAA2166 growth inhibition – luminescence, BacTiterGlo, counter-screen for streptokinase expression inhibitor project, dose response (AID 1915); assay type: functional, organism-based;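 note: potency for reduction of bacterial viability or growth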
BJ [21] = test: BJ-TERT fibroblast viability loss – cell-based, RAS-independent, luminescence, dose response (AID 1933); assay type: functional; details: Homo sapiens
[22] = DRD fibroblast viability loss – cell-based, non-viral oncogenic, luminescence, dose response (AID 1934); assay type: functional; details: Homo sapiens
[23] = Luminescence Cell-Based Dose Confirmation HTS to Identify Inhibitors of Platelet Dense Granule Release. [Related pubchem assays: 1663 (Primary HTS), 1678 (Summary of Project)]; assay type: functional
Streptokinase A = molecular target: T6, Streptokinase A (Streptococcus pyogenes serotype M1, UniProt P10520); test: viability-normalized secreted streptokinase activity reduction – plasminogen activation absorbance, OD405, dose response (AID 1914); assay type: functional, Streptococcus pyogenes M1 GAS;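 note: secreted streptokinase activity via plasminogen activation per viability signal from cell pellet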
T6 sequence (P10520 whole entry): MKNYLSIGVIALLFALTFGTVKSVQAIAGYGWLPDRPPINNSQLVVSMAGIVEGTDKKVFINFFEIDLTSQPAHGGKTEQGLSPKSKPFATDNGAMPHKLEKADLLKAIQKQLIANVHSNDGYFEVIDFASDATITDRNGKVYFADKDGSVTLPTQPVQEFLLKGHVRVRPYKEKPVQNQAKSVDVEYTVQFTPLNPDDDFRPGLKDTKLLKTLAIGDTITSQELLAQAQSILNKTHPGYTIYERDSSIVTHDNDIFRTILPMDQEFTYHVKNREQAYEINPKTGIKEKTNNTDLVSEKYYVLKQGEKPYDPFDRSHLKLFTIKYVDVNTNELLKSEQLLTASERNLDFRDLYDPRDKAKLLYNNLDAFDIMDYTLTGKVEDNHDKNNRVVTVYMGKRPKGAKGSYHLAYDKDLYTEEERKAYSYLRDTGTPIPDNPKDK

Sequence of Mu-type opioid receptor (P35372 whole entry): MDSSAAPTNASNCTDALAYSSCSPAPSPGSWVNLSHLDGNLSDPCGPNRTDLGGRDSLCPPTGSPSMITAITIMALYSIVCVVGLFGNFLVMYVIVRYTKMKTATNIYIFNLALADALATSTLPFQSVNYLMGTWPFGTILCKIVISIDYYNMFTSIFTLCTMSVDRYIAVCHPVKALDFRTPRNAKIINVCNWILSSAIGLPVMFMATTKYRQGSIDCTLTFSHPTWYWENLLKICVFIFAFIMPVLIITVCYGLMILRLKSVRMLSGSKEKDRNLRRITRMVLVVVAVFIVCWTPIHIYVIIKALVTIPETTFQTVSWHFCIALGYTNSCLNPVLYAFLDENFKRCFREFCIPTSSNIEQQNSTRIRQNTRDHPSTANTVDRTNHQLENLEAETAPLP
Sequence of 5-hydroxytryptamine receptor 2A (P35363 whole entry, the tested form may be a part): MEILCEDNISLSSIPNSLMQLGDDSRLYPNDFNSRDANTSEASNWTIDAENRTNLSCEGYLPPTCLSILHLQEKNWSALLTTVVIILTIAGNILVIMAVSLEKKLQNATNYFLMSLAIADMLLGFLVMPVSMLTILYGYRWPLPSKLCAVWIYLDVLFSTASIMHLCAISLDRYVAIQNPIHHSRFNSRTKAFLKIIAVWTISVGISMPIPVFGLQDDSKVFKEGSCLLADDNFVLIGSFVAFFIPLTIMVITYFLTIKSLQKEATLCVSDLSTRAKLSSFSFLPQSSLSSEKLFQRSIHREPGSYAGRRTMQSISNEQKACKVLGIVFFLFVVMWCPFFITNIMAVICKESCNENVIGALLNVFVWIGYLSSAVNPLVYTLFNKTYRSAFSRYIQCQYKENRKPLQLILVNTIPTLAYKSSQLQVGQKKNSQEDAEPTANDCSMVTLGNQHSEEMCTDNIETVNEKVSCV
Sequence of Luciferin 4-monooxygenase (P08659 whole entry): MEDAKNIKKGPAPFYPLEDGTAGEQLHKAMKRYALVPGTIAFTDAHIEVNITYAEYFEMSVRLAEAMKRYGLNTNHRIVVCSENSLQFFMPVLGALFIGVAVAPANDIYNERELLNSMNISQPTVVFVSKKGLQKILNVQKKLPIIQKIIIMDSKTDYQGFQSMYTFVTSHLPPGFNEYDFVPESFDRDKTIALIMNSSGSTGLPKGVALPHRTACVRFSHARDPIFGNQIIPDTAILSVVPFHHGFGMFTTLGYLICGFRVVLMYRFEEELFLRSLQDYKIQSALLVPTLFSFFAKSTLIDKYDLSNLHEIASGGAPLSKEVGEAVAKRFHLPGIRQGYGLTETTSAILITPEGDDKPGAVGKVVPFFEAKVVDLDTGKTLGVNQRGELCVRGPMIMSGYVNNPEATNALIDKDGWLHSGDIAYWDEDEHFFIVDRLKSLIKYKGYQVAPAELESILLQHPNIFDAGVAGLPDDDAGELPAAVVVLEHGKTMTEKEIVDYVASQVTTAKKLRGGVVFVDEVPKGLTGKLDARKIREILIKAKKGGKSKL
Sequence of FAD-linked sulfhydryl oxidase ALR (P55789 whole entry): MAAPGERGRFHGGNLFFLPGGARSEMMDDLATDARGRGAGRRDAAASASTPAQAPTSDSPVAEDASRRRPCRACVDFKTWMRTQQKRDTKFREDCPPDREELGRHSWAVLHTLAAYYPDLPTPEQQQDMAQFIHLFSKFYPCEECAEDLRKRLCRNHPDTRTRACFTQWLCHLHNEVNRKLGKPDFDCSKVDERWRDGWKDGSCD
Sequence of Large T antigen (P03070 whole entry): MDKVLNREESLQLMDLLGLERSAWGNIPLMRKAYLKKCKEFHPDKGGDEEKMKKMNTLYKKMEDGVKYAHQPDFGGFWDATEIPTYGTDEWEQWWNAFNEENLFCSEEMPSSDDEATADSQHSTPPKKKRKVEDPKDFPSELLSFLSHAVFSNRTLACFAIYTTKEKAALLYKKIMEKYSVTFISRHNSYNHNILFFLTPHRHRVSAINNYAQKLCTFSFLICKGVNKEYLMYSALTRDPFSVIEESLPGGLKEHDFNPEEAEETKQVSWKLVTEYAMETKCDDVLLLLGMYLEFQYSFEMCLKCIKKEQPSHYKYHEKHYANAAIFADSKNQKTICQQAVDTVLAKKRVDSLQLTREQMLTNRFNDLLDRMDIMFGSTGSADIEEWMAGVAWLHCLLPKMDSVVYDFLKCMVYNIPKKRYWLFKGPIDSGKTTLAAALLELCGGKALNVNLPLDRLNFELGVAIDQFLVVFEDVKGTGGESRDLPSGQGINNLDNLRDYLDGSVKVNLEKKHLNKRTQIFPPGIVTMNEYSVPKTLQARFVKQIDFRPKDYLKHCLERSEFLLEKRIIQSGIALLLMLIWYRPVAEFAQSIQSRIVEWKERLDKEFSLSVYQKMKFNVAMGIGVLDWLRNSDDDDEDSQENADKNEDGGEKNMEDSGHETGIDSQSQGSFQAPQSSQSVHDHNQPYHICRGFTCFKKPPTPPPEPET

SMILES: O=C(CSc1cccc[n+]1[O-])c1ccc(-c2ccccc2)cc1
- IC50 [1]: > 67.5 µM (inactive)
- IC50 (cells [2]): > 67.5 µM (inactive)

SMILES: OCC1(Cc2cccc(C(F)(F)F)c2)CCN(Cc2cc3ccccc3o2)CC1
- EC50 (Mu-type opioid receptor): 92.5 µM (inactive)
- EC50 [3]: > 260 µM (inactive)
- EC50 [4]: 3.6 µM (active)

SMILES: C(=C\c1ccccc1)/CN1CCN(C(c2nnnn2-c2ccc3c(c2)OCCO3)C2CC2)CC1 (stereo not given)
- EC50 (Mu-type opioid receptor): 92.3 µM (inactive)
- EC50 [4]: 76 µM (inactive)

SMILES: Cc1cnc(C)c(Nc2nc(C(N)Cc3ccc(C(F)(F)F)cc3)cs2)n1 (stereo not given)
- AC50 [5]: 5.07 µM (active)
- AC50 [6]: 10.5 µM (active)
- AC50 [7]: 18.1 µM (active)
- AC50 [8]: 7.29 µM (active)
- AC50 [9]: 5.44 µM (active)

SMILES: O=C(O)c1cccc2c1-c1ccccc1/C2=N\Nc1ccccc1
- AC50 [10]: > 100 µM (inactive)
- AC50 [11]: 0.264 µM (active)

SMILES: OC1CCN(C(S)=Nc2ccc(Nc3ccccc3)cc2)CC1
- AC50 [10]: > 100 µM (inactive)
- IC50 [12]: 38.7 µM (active)
- IC50 (Large T antigen): 6.93 µM (active)

SMILES: O=C(CCN1CCc2ccccc2C(c2ccccc2)C1)c1ccc2c(c1)OCCO2 (stereo not given)
- EC50 [3]: > 260 µM (inactive)
- IC50 (cells [13]): > 29.9 µM (inactive)
- IC50 [14]: 9.28 µM (active)
- EC50 (cells [15]): > 29.9 µM (inactive)
- EC50 [16]: 4.51 µM (active)

SMILES: O=Nc1c2cc(-c3ccccc3)n[nH]c-2c2ccccc12
- EC50 [17]: 5.57 µM (active)
- EC50 [18]: 0.222 µM (active)
- EC50 (BJ [19]): 6.29 µM (active)
- IC50 [1]: > 0.833 µM (active)
- IC50 (cells [2]): > 67.5 µM (inactive)
- EC50 (BJ [20]): > 150 µM (not active)
- EC50 (Streptococcus): 14.7 µM (active)
- EC50 (BJ [21]): 6.53 µM (active)
- EC50 [22]: 4.14 µM (active)
- EC50 [23]: 1.47 µM (active)
- EC50 (Streptokinase A): > 150 µM (not active)

SMILES: COc1cccc(CN2CCN(c3ncccn3)CC2)c1OC
- EC50 (Mu-type opioid receptor): 92.5 µM (inactive)
- EC50 [4]: 21.6 µM (inactive)
